Where a name gives a salt, the structure may show the parent alone.

Data set [1] deals with patients with menoxenia. Kind of data set: Clinical study against menoxenia. The class given is in vivo, human. From the text:
1. Clinical data: 60 cases (in total) of outpatients and inpatients with menoxenia were enrolled, and randomly divided into a treatment group of 30 patients and a control group of 30 patients. There was no significant difference between the two groups in clinical data.
2. Diagnosis criteria: Symptoms include disorders in the menstrual cycle and menstrual period, excessive or insufficient bleeding during menstruation, and abdominal pain before and after menstruation.
3. […] Patients in the control group were orally given clomifene citrate capsules (NMPA Approval No. H31021107), 50 mg/day, started on day 5 since menstruation, for 2 consecutive months.
4. Efficacy evaluation criteria: The efficacy evaluation is based on the relevant standards in Guiding Principles for Clinical Research of New Chinese Medicines.
(§1) Total effective rate=cured rate+effective rate.

Data set [2] has as its system patients with depression. Kind of data set: Clinical study against depression. Format: in vivo, human. The protocol:
1. Clinical data: 60 cases (in total) of outpatients and inpatients with depression were enrolled, and randomly divided into a treatment group of 30 patients and a control group of 30 patients. There was no significant difference between the two groups in clinical data.
2. Diagnosis criteria: The diagnosis criteria for depression from The Diagnostic and Statistical Manual of Mental Disorders.
3. […] Patients in the control group were treated with fluoxetine, the initial and treatment doses both being 20 mg/day, for a course of 4 weeks.
4. Efficacy evaluation criteria: After 4 weeks of treatment, the patients were scored by a psychiatrist based on the Hamilton Depression Rating Scale HAMD-17. “Cured” means a HAMD-17 total score <7; “effective” means a HAMD-17 total score of 8-17; and “ineffective” means a HAMD-17 total score>17.
as §1

Data set [3] deals with patients with urticaria. Kind of data set: Clinical study against urticaria. The class given is in vivo, human. As to the method:
1. […]. There was no significant difference between the two groups in clinical data.
3. […] The patients in the control group orally took loratadine 5 mg per time, once day, for 30 days.
(§2) 4. […] Total effective rate=cured rate+markedly effective rate+effective rate.

Data set [4] has as its system patients with allergic rhinitis. Kind of data set: Clinical application trial for treatment of allergic rhinitis. Format: in vivo, human. As to the method: There was no significant difference between the two groups in clinical data and conditions. […] Diagnosis criteria: 2 or more clinical symptoms such as sneezing, clear water-like nasal discharge, nasal congestion, and nasal itching, appearing continuously or continually for 1 hour or more every day. It may be accompanied by eye symptoms such as eye itching and conjunctival hyperemia. Common signs often include pale nasal mucosa, edema, and watery nasal discharge. Positive in the allergen skin prick test. 3. […] 4. […] Total effective rate=cured rate+effective rate.

Data set [5] deals with patients with ankylosing spondylitis. Kind of data set: Clinical study in patients with ankylosing spondylitis. The class given is in vivo, human. The note with it: number of patients (14 treatment, 13 control); after 1 month. The source says:
1. […] 2. […] 3. […] 4. Efficacy evaluation criteria:

Data set [6] relates to hypertensive patients. Kind of data set: Clinical study against hypertension. The note with it: human, in vivo. The protocol: 1. Clinical data: In this example, totally 46 hypertensive patients were treated and observed clinically, including 25 males and 21 females, 18-75 years old, with a course of disease of 0.5 to 30 years, who were randomly divided into a treatment group of 23 patients and a control group of 23 patients. There was no significant difference between the two groups in clinical data.
2. Diagnosis criteria: According to the Guidelines for Diagnosis of Hypertension in China (2010), hypertension can be diagnosed if the systolic pressure≥140 mmHg and/or the diastolic pressure≥90 mmHg. Grade 1 hypertension: systolic pressure 140 to 159 mmHg and/or diastolic pressure 90 to 99 mmHg; Grade 2 hypertension: systolic pressure 160 to 179 mmHg and/or diastolic pressure 100 to 109 mmHg; Grade 3 hypertension: systolic pressure≥180 mmHg and/or diastolic pressure≥110 mmHg.
3. […] Patients in the control group orally took Levamlodipine Beslate and losartan potassium tablets, 3 times a day under supervision of a physician, and the dose was maintained for 3 months or more.
as §2

Setting [7] is: number of patients of 28, chronic urticaria.
Where [8] appears, read: number of patients of 30, allergic rhinitis.

Take `CCN(CC)CCOc1ccc(C(=C(Cl)c2ccccc2)c2ccccc2)cc1` [clomifene citrate capsules, clomifene citrate]: the “Total effective rate (%)” value in data set [1] (after treatment) was determined as 66.67%. Besides, in data set [1] (number of patients of 30), the Cured stood at 0, the Effective was found to be 10 and the Markedly effective is reported as 10.

With `CNCCC(Oc1ccc(C(F)(F)F)cc1)c1ccccc1` (centres unmarked) [fluoxetine], the “Total effective rate (%)” value in data set [2] (cured rate+effective rate, depression, after 4 weeks) came to 76.67%. The molecule further came in with a Cured in data set [2] (number of patients of 30, HAMD-17 total score <7 after 4 weeks) of 9. The molecule also showed an Ineffective in data set [2] (number of patients of 30, HAMD-17 total score >17 after 4 weeks) of 7. Also, in data set [2] (number of patients of 30, HAMD-17 total score of 8-17 after 4 weeks), the Effective is on record as 14.

Turning to `CCOC(=O)N1CCC(=C2c3ccc(Cl)cc3CCc3cccnc32)CC1` [loratadine], in data set [3] (cured rate+markedly effective rate+effective rate, chronic urticaria), the “Total effective rate (%)” value worked out at 53.57%. Besides, the Cured in data set [3] (setting [7]) was found to be 0; in data set [4] (number of patients of 30, allergic rhinitis, no recurrence for 60 days), 0. Moreover, the Ineffective was 13 in data set [3] (setting [7]) and 10 in data set [4] (setting [8]). Also, the Effective in data set [3] (number of patients of 28, wheal subsided by 50% to 80%) worked out at 6; in data set [4] (setting [8]), 20. This molecule also came in with a Markedly effective in data set [3] (number of patients of 28, wheal subsided by 80% or more) of 9. Besides, the recurrence entry in data set [4] (6-month follow-up / after drug discontinuance) is “allergic symptoms appeared after contact with allergens after drug discontinuance”. In data set [4] (during the treatment, of 30 patients), the “drug adverse reaction or drug dependence” value worked out at 5 cases.

Regarding `O=C(O)c1cc(/N=N/c2ccc(S(=O)(=O)Nc3ccccn3)cc2)ccc1O` [sulfasalazine enteric tablets, sulfasalazine], in data set [5], the Effective is 5, the Ineffective was 6 and the Markedly effective was determined as 2.

In data set [6], “Levamlodipine Beslate and losartan potassium” came in with an adverse drug reactions of 6 cases and a drug dependence of 4 cases.

These data come from patent US20220072061A1, “SUBSTANCE FOR TREATMENT OR PREVENTION OF DISEASES, METHOD FOR DESIGNING THE SAME, AND METHOD FOR PREPARING THE SAME” (priority 2018, published 2022).
